Like-named read-outs stand apart in the source and are kept apart here.

These results are taken from patent publication US20080153791A1, “11Beta -Hydroxysteroid Dehydrogenases” (onpharm GmbH, priority 2005, published 2008).

The target of one assay is T1, human 11β-HSD1 (Homo sapiens, UniProt P28845).
T1 construct: expressed in transfected cells
Nature of the assay: 11β-HSD1 reductase activity (cortisone to cortisol) in lysates of stably transfected HEK-293 cells. It is filed as biochemical. As to conditions: for remaining activity at 20 µM: 20 μM compound, 100 nM cortisone, HEK-293 cell lysates, read-out: 11β-HSD1 % of control; for IC50: cell lysates. How it is done: (§1) Cells were grown in 10 cm dishes to 80% confluence and incubated for 16 h in steroid-free medium (charcoal-treated fetal calf serum (FCS) from HyClone, Logan, Utah). Cells were rinsed once with phosphate-buffered saline (PBS), detached and centrifuged for 3 min at 150×g. The supernatant was removed and the cell pellet quick-frozen in a dry-ice ethanol bath. At the day of experiment, cell pellets were resuspended in buffer TS2 (100 mM NaCl, 1 mM EGTA, 1 mM EDTA, 1 mM MgCl2, 250 mM sucrose, 20 mM Tris-HCl, pH 7.4), sonicated and activities determined immediately. The rate of conversion of cortisol to cortisone or the reverse reaction was determined in 96-well optical PCR reaction plates (Applied Biosystems, Foster City, Calif.) in a final volume of 22 μl, and the tubes were capped during the reaction to avoid evaporation.
Reactions were initiated simultaneously by adding 10 μl of cell lysate and 12 μl of TS2 buffer containing the appropriate concentration of the inhibitory compound to be tested, NADPH, 30 nCi of [1,2,6,7-^3H]-cortisone and unlabeled cortisone, whereby final concentrations were 400 μM NADPH and 100 nM cortisone. Activities were determined immediately after cell disruption by measuring the conversion of radiolabeled cortisone to cortisol for 10 min.
(§2) Enzyme kinetics were analyzed by non-linear regression using Data Analysis Toolbox (MDL Information Systems Inc.) assuming first-order rate kinetics. Data represent mean ±SD of four to five independent experiments.
(§3) Assay with 20 μM of the corresponding compound in the reaction mixture, added simultaneously with the substrate:
(§4) Determination of IC50 values, using 7 different inhibitor concentrations at factor 2 intervals: […]

The target in the next assay is T2, human 11β-HSD2 (Homo sapiens, UniProt P80365).
T2 construct: expressed in transfected cells
T2 sequence (P80365 1-405): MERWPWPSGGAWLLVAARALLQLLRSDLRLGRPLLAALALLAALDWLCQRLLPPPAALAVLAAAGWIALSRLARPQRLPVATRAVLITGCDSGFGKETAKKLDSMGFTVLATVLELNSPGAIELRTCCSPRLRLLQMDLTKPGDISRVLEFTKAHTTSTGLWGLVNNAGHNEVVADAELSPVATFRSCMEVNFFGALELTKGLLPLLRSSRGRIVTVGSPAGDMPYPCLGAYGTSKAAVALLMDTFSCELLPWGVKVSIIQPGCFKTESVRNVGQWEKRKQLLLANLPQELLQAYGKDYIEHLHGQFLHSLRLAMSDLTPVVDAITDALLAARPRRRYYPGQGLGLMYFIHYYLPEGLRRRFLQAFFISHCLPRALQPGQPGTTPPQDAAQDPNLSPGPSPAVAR
In words: 11β-HSD2 oxidase activity (cortisol to cortisone) in lysates of stably transfected HEK-293 cells. The assay is classed as biochemical. As to conditions: for remaining activity at 20 µM: read-out: 11β-HSD2 % of control. On the procedure: as §1
Reactions were initiated by simultaneously adding 10 μl of cell lysate and 12 μl of TS2 buffer containing the appropriate concentration of the inhibitory compound to be tested, NAD^+, 30 nCi of [1,2,6,7-^3H]-cortisol and unlabeled cortisol. […] Stock solutions of the inhibitors in methanol or DMSO were diluted in TS2 buffer to yield the appropriate concentrations, whereby the concentration of methanol or DMSO in the reactions were kept below 0.1%. Control reactions with or without 0.1% of the solvent were performed. Incubation was at 37° C. for 10 min with shaking, reactions were terminated by adding 10 μl of stop solution containing 2 mM of unlabeled cortisol and cortisone dissolved in methanol. The conversion of radiolabeled cortisol was determined by separation of cortisol and cortisone using TLC and a solvent system of 9:1 (v/v) chloroform:methanol, followed by scintillation counting.
as §2, §3, §4

Setting [1] is: 20 μM compound, 25 nM cortisol, HEK-293 cell lysates.
Setting [2] is: cell lysates, 7 inhibitor concentrations at factor 2 intervals, experiment 2, read-out: IC 50 11β-HSD2, determination 2.
[3] abbreviates: cell lysates, 7 inhibitor concentrations at factor 2 intervals, experiment 3, read-out: IC 50 11β-HSD2, determination 3.

T1 sequence (P28845 whole entry): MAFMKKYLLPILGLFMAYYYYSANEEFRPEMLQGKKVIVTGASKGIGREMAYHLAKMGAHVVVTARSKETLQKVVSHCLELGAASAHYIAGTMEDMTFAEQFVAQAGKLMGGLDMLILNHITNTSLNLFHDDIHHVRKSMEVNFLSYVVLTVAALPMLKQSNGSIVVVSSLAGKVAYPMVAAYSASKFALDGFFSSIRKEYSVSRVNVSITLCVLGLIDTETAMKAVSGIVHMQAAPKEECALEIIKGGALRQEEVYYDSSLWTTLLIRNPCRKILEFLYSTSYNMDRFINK

On to `COc1cc(/C=N/NC(=O)CSc2nc3ccccc3n2Cc2ccc(C)cc2)cc(OC)c1OC(C)=O` [BNW28], for which the remaining activity at 20 µM was 76.7% on human 11β-HSD1 and 137% on human 11β-HSD2 (setting [1]).

As for `CCN(CC(O)COc1cc(C)c(Cl)c(C)c1)S(=O)(=O)O` (stereo not drawn) [BNW1], the remaining activity at 20 µM turned out to be 102% at human 11β-HSD1 and 96.8% at human 11β-HSD2 (setting [1]).

As to `COc1ccc(C(=O)C2=C(O)C(=O)N(CCCn3ccnc3)C2c2ccccc2)cc1Cl` (stereo not drawn) [BNW21], the remaining activity at 20 µM at human 11β-HSD1 was found to be 48.9%; on human 11β-HSD2 (setting [1]) it was 122%.

Consider `Cc1n[nH]c(O)c1C(c1ccc(-c2ccc(Cl)c(C(=O)O)c2)o1)c1c(O)n[nH]c1C` [BNW5], for which the values for the remaining activity at 20 µM on human 11β-HSD1 and on human 11β-HSD2 (setting [1]) were 69.8% and 97.5%, respectively.

As to `COC(=O)[C@@]1(C)CC[C@]2(C)CC[C@]3(C)C(=CC(=O)[C@@H]4[C@@]5(C)CC[C@H](Oc6ccccc6C(=O)O)C(C)(C)[C@@H]5CC[C@]43C)[C@@H]2C1` [BNW13, (2S,4aS,6aS,6bR,8aR,10S,12aS,12bR,14bR)-10-(2-Carboxy-phenoxy)-2,4a,6a,6b,9,9,12a-heptamethyl-13-oxo-1,2,3,4,4a,5,6,6a,6b,7,8,8a,9,10,11,12,12a,12b,13,14b-icosahydro-picene-2-carboxylic acid methyl ester], the remaining activity at 20 µM at human 11β-HSD1 amounted to 3.9%; at human 11β-HSD2 (setting [1]) it was 14.4%. The IC50 at human 11β-HSD1 (7 inhibitor concentrations at factor 2 intervals, experiment 1, read-out: IC 50 11β-HSD1, determination 1) came out at 666 nM; on human 11β-HSD1 (7 inhibitor concentrations at factor 2 intervals, experiment 2, read-out: IC 50 11β-HSD1, determination 2) it was 756 nM; on human 11β-HSD1 (7 inhibitor concentrations at factor 2 intervals, experiment 3, read-out: IC 50 11β-HSD1, determination 3), 652 nM; at human 11β-HSD2 (setting [2]), 263 nM; at human 11β-HSD2 (setting [3]), 299 nM.

With `COc1ccc(OC)c(C2C(C(=O)c3ccc(Br)cc3)=C(O)C(=O)N2CCCn2ccnc2)c1` (stereo not drawn) [BNW2], the remaining activity at 20 µM was determined as 78.8% at human 11β-HSD1 and 78% at human 11β-HSD2 (setting [1]).

Take `COc1cccc(/C=N/NC(=O)CSCc2ccccc2C)c1OC` [BNW23]: the values for the remaining activity at 20 µM on human 11β-HSD1 and at human 11β-HSD2 (setting [1]) were 85.1% and 133%, respectively.

`COc1ccc(C(=O)NCc2cccc(Cl)c2Cl)c(C(F)(F)F)c1` [BNW6]: the remaining activity at 20 µM at human 11β-HSD1 amounted to 79.6%; on human 11β-HSD2 (setting [1]), 145%.

With `CCOc1ccc(C2c3cc(OCC)c(OCC)cc3CC(=O)N2c2ccc(C(=O)O)cc2)cc1OCC` (stereo not drawn) [BNW17], the results for the remaining activity at 20 µM on human 11β-HSD1 and on human 11β-HSD2 (setting [1]) were 88.2% and 120%, respectively.

As for `CCOc1ccc(C2C(C(=O)c3ccc(Cl)cc3)=C(O)C(=O)N2CCCn2ccnc2)cc1OCC` (stereo not drawn) [BNW22], the remaining activity at 20 µM at human 11β-HSD1 stood at 41.3%; on human 11β-HSD2 (setting [1]) it was 104%.

For `NC(=O)c1c(NC(=O)C2CC=CCC2C(=O)O)sc2c1CCCCC2` (stereo not drawn) [BNW8], the remaining activity at 20 µM at human 11β-HSD1 came out at 41.7%; at human 11β-HSD2 (setting [1]), 103%.

Turning to `CCCCOc1ccc(C(=O)C2=C(O)C(=O)N(CCOC)C2c2cccnc2)c(C)c1` (stereo not drawn) [BNW3], the remaining activity at 20 µM stood at 60.3% on human 11β-HSD1 and 53.6% on human 11β-HSD2 (setting [1]).

As for `COc1cc2c(cc1OC)C(COc1ccc([N+](=O)[O-])cc1)N(C(=O)c1ccc(Cl)c([N+](=O)[O-])c1)CC2` (stereo not drawn) [BNW27], the figures for the remaining activity at 20 µM on human 11β-HSD1 and at human 11β-HSD2 (setting [1]) were 78.6% and 126%, respectively.

As for `CSc1nc2cc(C)c(C)cc2n1C1OC(CO)C(O)C1O` (stereo not drawn) [BNW18], the remaining activity at 20 µM at human 11β-HSD1 is 92%; on human 11β-HSD2 (setting [1]) it was 82.8%.

For the compound `CC1(C)[C@@H](N)CC[C@]2(C)[C@H]3C(=O)C=C4[C@@H]5C[C@@](C)(C(=O)O)CC[C@]5(C)CC[C@@]4(C)[C@]3(C)CC[C@@H]12` [BNW25, (2S,4aS,6aS,6bR,8aR,10S,12aS,12bR,14bR)-10-Amino-2,4a,6a,6b,9,9,12a-heptamethyl-13-oxo-1,2,3,4,4a,5,6,6a,6b,7,8,8a,9,10,11,12,12a,12b,13,14b-icosahydro-picene−2-carboxyiic acid], the figures for the remaining activity at 20 µM on human 11β-HSD1 and on human 11β-HSD2 were 2.9% and 13.9%, respectively. In addition, the IC50 on human 11β-HSD1 (mean of determinations 1-3, read-out: IC 50 11β-HSD1, Mean) is 172 nM; on human 11β-HSD2 (setting [2]), 54.6 nM; on human 11β-HSD2 (setting [3]) it was 64.9 nM; at human 11β-HSD2 (read-out: IC 50 11β-HSD2, Mean), 59.7 nM.

With `COc1ccc(CNC(=O)C2CCC(=O)N2C2CCCC2)cc1OC` (stereo not drawn) [BNW26], the values for the remaining activity at 20 µM on human 11β-HSD1 and on human 11β-HSD2 (setting [1]) were 94.1% and 137%, respectively.

For `CCN(CC)S(=O)(=O)c1ccc(OC)c(-c2nnc(-c3cc(S(=O)(=O)N(CC)CC)ccc3OC)o2)c1` [BNW29], the results for the remaining activity at 20 µM at human 11β-HSD1 and on human 11β-HSD2 (setting [1]) were 75.3% and 115%, respectively.

For the compound `Cc1nn(CC(=O)Nc2sc(C)c(C)c2C(N)=O)c(C)c1[N+](=O)[O-]` [BNW4], the figures for the remaining activity at 20 µM at human 11β-HSD1 and on human 11β-HSD2 (setting [1]) were 82.2% and 95%, respectively.

As to `CCC(Sc1nnc(-c2ccc(OC)c(OC)c2)c(-c2ccc(OC)c(OC)c2)n1)C(=O)N(CC)CC` (stereo not drawn) [BNW30], the figures for the remaining activity at 20 µM at human 11β-HSD1 and at human 11β-HSD2 (setting [1]) were 48.4% and 140%, respectively.

On to `CCN(CC)S(=O)(=O)c1ccc(Cl)c(C(=O)Nc2nc3ccc(S(C)(=O)=O)cc3s2)c1` [BNW12], for which the remaining activity at 20 µM at human 11β-HSD1 amounted to 85.4%; at human 11β-HSD2 (setting [1]), 132%.

As to `COCCC1C(=O)C(O)=C(C(=O)c2ccc(OC)c(C)c2)C1c1ccc(Cl)cc1Cl` (stereo not drawn) [BNW9], the remaining activity at 20 µM worked out at 30.7% at human 11β-HSD1 and 77.4% on human 11β-HSD2 (setting [1]).

`COCCN1C(=O)C(O)=C(C(=O)c2ccc(OC)c(C)c2)C1c1ccc(C)cc1` (stereo not drawn) [BNW20]: the remaining activity at 20 µM is 46.8% on human 11β-HSD1 and 121% on human 11β-HSD2 (setting [1]).

On to `CC1(C)[C@@H](OCO)CC[C@]2(C)[C@H]3C(=O)C=C4C5=C[C@@](C)(C(=O)O)CC[C@]5(C)CC[C@@]4(C)[C@]3(C)CC[C@@H]12` [BNW15], for which the values for the remaining activity at 20 µM on human 11β-HSD1 and at human 11β-HSD2 (setting [1]) were 50.4% and 56.9%, respectively.

For the compound `Cc1cccc(C)c1C1C(SCC(=O)Nc2c(Cl)cccc2Cl)=NN=C1c1cccc([S+]([O-])N(C)C)c1` (stereo not drawn) [BNW11], the remaining activity at 20 µM on human 11β-HSD1 was determined as 70.1%; at human 11β-HSD2 (setting [1]) it was 121%.
